US20170267727A1, “Conjugates of pH Low Insertion Peptide and Monomethyl Auristatins in the Treatment of Solid Tumors” (Lehigh University, priority 2016, published 2017)
“Also recorded” adds a separate entry of the source. Positions of bridges follow the written chain, without caps; N, C: chain ends. Non-standard residues stand in square brackets, D forms with d. Residues, ends and D or L forms follow the SMILES beside them. Chains are numbered I, II in the order given. No end group written: not given here. *: point of attachment. Dolaproine = CO[C@@H]([C@@H]1CCCN1)[C@@H](C)C(=O)O; Dil = CC[C@H](C)[C@H](NC)[C@@H](CC(=O)O)OC; X1 = C[C@@H](N*)[C@@H](O)c1ccccc1; NMeV = CN[C@H](C(=O)O)C(C)C; Mpa = O=C(O)CCS

Legend:
[1] = cited from earlier work
[2] = cited from earlier work; remark: listed apart in the source
A431 tumors = settings: i.p., 1 mg/kg
HeLa tumors = settings: end of the three week study, n=8
Procedure: HeLa (ATCC#CCL-2) were injected subcutaneously into the inguinal space of female Ncr nu/nu mice. Tumors were allowed to develop until they were approximately 75 mm^3 in size. […] On days 1, 3, 5, and 8, animals were injected intravenously with 200 microliters of either pHLIP-MMAF (20 microM in PBS+1% DMSO) or vehicle control (PBS+1% DMSO). Tumors were measured with calipers on routine basis for approximately 3 weeks and tumor volumes calculated with the formula: length×width×(height×0.5). Animals were euthanized when tumors reached a volume of 500 mm^3. FIG. 10A depicts tumor growth as a function of initial tumor volume. FIG. 10B depicts tumor volume. FIG. 10C depicts overall survival.
HeLa (ATCC#: CCL-2) were injected subcutaneously (s.c.) into the inguinal space of female Ncr nu/nu mice. Tumors were allowed to develop until they were approximately 75 mm^3 in size. […] On days 1, 3, 5, and 8 animals were injected intravenously with 200 microliters of either pHLIP-MMAF (20 microM in PBS+1% DMSO) or vehicle control (PBS+1% DMSO). Tumors were measured with calipers on routine basis for approximately 3 weeks and tumor volumes calculated with the formula Length×Width×(Height×0.5). […] A tumor volume of 500 mm^3 was prospectively set as the stopping point for this study.

[3] = Toxicity Studies (CBC and comprehensive metabolic panel); assay type: in vivo; settings: four 1 mg/kg injections on days 1, 3, 5 and 7; monitored 2 weeks after final injection
Procedure: Four one milligram/kilogram (1 mg/kg) injections of pHLIP(WT)-MMAF are given to subjects on days 1, 3, 5 and 7. Overall health, liver and kidney function, and electrolytes are monitored using a complete blood count (CBC) and comprehensive metabolic panel, for a period of 2 weeks after the final injection.

HeLa cells [4] = assay: Anti-proliferation Assay (2 hours treatment at pH 7.4 or 5.0, 72 hours growth, MTT)
Procedure: (§1) FIG. 3A, FIG. 3C and FIG. 3E show HeLa cells treated with pHLIP(WT)-MMAE, pHLIP(D25E)-MMAE, and MMAE(linker), respectively. FIG. 3B, FIG. 3D and FIG. 3F show MDA-MB-231 cells treated with pHLIP(WT)-MMAE, pHLIP(D25E)-MMAE, and MMAE(linker), respectively. Black columns represent cells treated at pH 7.4 and cells treated at low pH are shown in grey. For each condition, 3,000 cells/well (96-well plate) were seeded, allowed to adhere overnight, treated for 2 hours, washed once with media and grown for 72 hour in complete medium at physiologic pH. Cell viability was assessed with the MTT assay. All measurements were normalized to the media control (0 μM, pH 7.4), as 100% cell viability. Results are shown as mean±SD (n=6-9).
HeLa cells treated with pHLIP(WT)-MMAF (FIG. 9A), pHLIP(D25E)-MMAF (FIG. 9B), pHLIP(P20G)-MMAF (FIG. 9C), and pHLIP(R11Q)-MMAF (FIG. 9D). Circles represent cells treated at pH 7.4 and squares represent cells treated at pH 5.0. Results are shown as the mean±SEM (n=6-9).
(§2) Anti-proliferation Assay. HeLa and MDA-MB-231 cells were seeded in 96-well plates at a density of 3,000 cells/well and incubated overnight. Before treatment, construct aliquots were solubilized in an appropriate volume of DMEM without FBS (pH 7.4)—so that upon pH adjustment the desired treatment concentration is obtained—and gently sonicated for 30-60 seconds using a bath sonicator (Branson Ultrasonics). After removal of cell media, this treatment solution was added to each well and incubated at 37° C. for 5-10 minutes. The pH was then adjusted to the desired value using a pre-established volume of DMEM, pH 2.0 buffered with citric acid (final volume=50 μL) and the plate was incubated at 37° C. for 2 hours. After treatment, the media was removed, cells were washed once with 100 μL of complete DMEM, and 100 μL of complete medium was added to each well before returning the plate to the incubator. Treatment solutions were collected and their pH values measured using a micro-combination pH probe (Microelectrodes, Inc.). […] Cell viability was determined after 72 hours using the colorimetric MTT assay. Briefly, 10 μL of a 5 mg/mL MTT stock solution was added to the treated cells and incubated for 2 hours at 37° C. The resulting formazan crystals were solubilized in 200 μL DMSO and the absorbance measured at 580 nm using an Infinite 200 PRO microplate reader (Tecan). Cell viability was calculated against control cells treated with media at physiologic pH.
(§3) Inhibition of Cell Proliferation. The ability of pHLIP to move MMAE across the cell membrane and to inhibit cancer cell proliferation in concentration and pH-dependent manners was evaluated. Cell treatments for both pHLIP(WT)-MMAE and pHLIP(D25E)-MMAE constructs were carried out with conjugate concentrations ranging from 1.25 to 10 μM at either pH 7.4 or 5.0. After a 2-hour incubation at 37° C., the treatment media was replaced by fresh media, and cells were grown for an additional 72 hours at normal pH before assessing cell viability using the MTT assay. […] This treatment protocol is quite stringent when compared to the typical multi-days exposure treatments used with free drugs (FIG. 6A and FIG. 6B).

MDA-MB-231 cells = assay: as above
Procedure: as §1, §2, §3

HeLa cells [5] = assay: Cell proliferation with free drug, 72 hours incubation, MTT assay; assay type: cell-based, Human; settings: incubated with the cells for 72 hours; read-out: IC50 against HeLa cells
Procedure: FIG. 6A and FIG. 6B show inhibition of HeLa (FIG. 6A) and MDA-MB-231 (FIG. 6B) cell proliferation by free MMAE modified with a succinimide nitrophenyl-based linker (MMAE+linker) and by unmodified MMAE. For each cell assay 3,000 cells/well were seeded, allowed to adhere overnight and incubated with either compound for 72 hours in complete medium at physiologic pH. Cell viability was determined with the MTT assay. All measurements were normalized to the 1% DMSO controls. Results are shown as mean±SD (n=6). Data were fitted with a sigmoidal dose response function in Prism for Mac (GraphPad Software, Inc.).
Cell Culture. Human cervical adenocarcinoma HeLa cells and human breast adenocarcinoma MDA-MB-231 cells were cultured in Dulbecco's modified Eagle's medium (DMEM supplemented with 10% FBS, 100 U/mL penicillin, and 0.1 mg/mL streptomycin in a humidified atmosphere of 5% CO2 at 37° C.

[6] = cited from earlier work; remark: listed apart in the source
[7] = 2.5 μL (so in the source), low pH

## CC[C@H](C)[C@@H]([C@@H](CC(=O)N1CCC[C@H]1[C@H](OC)[C@@H](C)C(=O)N[C@@H](Cc1ccccc1)c1nccs1)OC)N(C)C(=O)[C@@H](NC(=O)[C@H](C(C)C)N(C)C)C(C)C [Dolastatin 10]
[1]
  IC50: 0.1 nM
[2]
  Log P o/w: 3.4

## I: AAEQNPIYWARYADWLFTTPLLLLDLALLVDADEGTCG-NH2 / II: [Mpa][NMeV]V[Dil][Dolaproine]F (disulfide I:37-II:1; C-terminus assumed) [pHLIP(WT)-MMAF]
A431 tumors
  effect on A431 tumors: Analogous results were obtained
HeLa tumors
  animals removed for tumor size exceeding 500 mm^3: only a single animal
[3]
  overall health, liver and kidney function, electrolytes: Clinically significant differences in overall health, liver and kidney function, and electrolytes were not observed
HeLa cells [4]
  improvement over treatments with pHLIP(WT)-MMAE: ca. 100 fold
HeLa cells [4]; pH 7.4 versus pH 5.0
  cell killing: clear pH-selective and concentration-dependent killing

## CC[C@H](C)[C@@H]([C@@H](CC(=O)N1CCC[C@H]1[C@H](OC)[C@@H](C)C(=O)N[C@@H](Cc1ccccc1)C(=O)OC)OC)N(C)C(=O)[C@@H](NC(=O)[C@@H](NC)C(C)C)C(C)C [MMAF-Ome, monomethyl auristatin F-OMe] (H-[NMeV]V[Dil][Dolaproine]F-OMe)
[1]
  IC50: 0.001 nM
[2]
  Log P o/w: 2.8

## CC[C@H](C)[C@@H]([C@@H](CC(=O)N1CCC[C@H]1[C@H](OC)[C@@H](C)C(=O)N[C@@H](Cc1ccccc1)C(=O)O)OC)N(C)C(=O)[C@@H](NC(=O)[C@@H](NC)C(C)C)C(C)C [MMAF, monomethyl auristatin F] (H-[NMeV]V[Dil][Dolaproine]F-OH)
[1]
  IC50: 105 to 250 nM
[2]
  Log P o/w: 0.7

## CC[C@H](C)[C@@H]([C@@H](CC(=O)N1CCC[C@H]1[C@H](OC)[C@@H](C)C(=O)N[C@H](C)[C@@H](O)c1ccccc1)OC)N(C)C(=O)[C@@H](NC(=O)[C@@H](NC)C(C)C)C(C)C [MMAE, monomethyl auristatin E, reference compound] (H-[NMeV]V[Dil][Dolaproine]-X1)
[1]
  IC50: 0.1 to 2 nM
[2]
  Log P o/w: 2.2
HeLa cells [4]; [7]
  cytotoxicity: 20-30%
HeLa cells [4]; physiological pH, 5 μM
  cytotoxicity: about 70%
MDA-MB-231 cells; [7]
  cytotoxicity: 20-30%
HeLa cells [5]
  IC50: ~4 nM

## amanitin
[6]
  pKa of insertion: 5.9

## pHLIP(D25E) (AAEQNPIYWARYADWLFTTPLLLLELALLVDADEGTCG-NH2) [reference compound]
[6]
  pKa of insertion: 6.49
HeLa cells [4]; 10 μM, pH 7.4 or pH 5.0
  effect of peptide alone on cell viability: not cytotoxic; also recorded: neither pHLIP(WT) or pHLIP(D25E) peptides have any harmful effects
MDA-MB-231 cells; 10 μM, pH 7.4 or pH 5.0
  effect of peptide alone on cell viability: not cytotoxic; also recorded: neither pHLIP(WT) or pHLIP(D25E) peptides have any harmful effects
